Data: patent US10933056B2, “3-(1H-pyrazol-4-yl)pyridine allosteric modulators of the M4 muscarinic acetylcholine receptor” (Merck Sharp & Dohme Corp., priority 2015, dated 2021)

Molecular target: T1, human M4 muscarinic acetylcholine receptor (Homo sapiens, UniProt P08173)
T1 construct: expressed in transfected cells; host or cells: CHO-K1
T1 sequence (P08173 1-479): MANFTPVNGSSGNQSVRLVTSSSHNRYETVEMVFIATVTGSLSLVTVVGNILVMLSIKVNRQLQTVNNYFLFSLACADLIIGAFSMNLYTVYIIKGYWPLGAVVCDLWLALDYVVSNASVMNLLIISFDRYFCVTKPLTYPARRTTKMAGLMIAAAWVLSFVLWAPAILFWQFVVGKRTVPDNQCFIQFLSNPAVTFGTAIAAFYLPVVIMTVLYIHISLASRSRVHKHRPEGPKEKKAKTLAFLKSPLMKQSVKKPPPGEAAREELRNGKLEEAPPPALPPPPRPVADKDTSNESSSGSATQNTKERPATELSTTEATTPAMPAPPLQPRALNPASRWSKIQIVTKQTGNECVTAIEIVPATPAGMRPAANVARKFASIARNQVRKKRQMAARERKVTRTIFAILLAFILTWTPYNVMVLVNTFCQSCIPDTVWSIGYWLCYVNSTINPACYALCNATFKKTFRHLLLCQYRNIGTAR
Assay: human FLIPR-based M4 PAM assay (calcium mobilization in CHO-K1 cells with human M4 receptor and Gαqi5)
Format: cell-based
Settings: inflection point of dose response curve, acetylcholine at 20% of maximum response, FLIPR Tetra, read-out: M4 PAM IP
Description: (§1) In a typical experiment the M4 muscarinic acetylcholine receptor modulating activity of the compounds of the present invention was determined in accordance with the following experimental method. CHO-K1 cells stably transfected with human M4 receptor and chimeric G-protein Gαqi5 (Coward P, et al., Analytical Biochemistry, 270:242-248 (1999)) are thawed from liquid N2 storage, resuspended in growth medium, plated in black, clear bottom 384 well plates, and incubated 16-20 hours at 37° C., 5% CO2. On the day of assay, growth medium is removed, the cells are washed 2 times with wash buffer, and cells are incubated in dye loading buffer at 37° C., 5% CO2 for ˜1 hour. Following dye loading the cell plates are placed in a FLIPR Tetra instrument and while monitoring dye fluorescence (excitation […]), 10 uL of test substance at increasing concentrations is added, and fluorescence values are recorded for 4 min. Next, 10 uL of acetylcholine is added (final concentration calculated so as to achieve 20% of the maximum acetycholine response), and the fluorescence reading is continued for 3.5 min. In some cases, a third addition of acetylcholine (final concentration calculated to achieve 70% of the maximal acetylcholine response) is performed. The resulting dose response curves are fit to a 4 parameter logistic equation and the final result is determined as the inflection point (IP) of the curve
as §1, with “CHO-K1” for “In a typical experiment the M4 muscarinic acetylcholine receptor modulating activity of the compounds of the present invention was determined in accordance with the following experimental method. CHO-K1”, “Gαqi5” for “Gαqi5 (Coward P, et al., Analytical Biochemistry, 270:242-248 (1999))”, “performed.” for “performed. The resulting dose response curves are fit to a 4 parameter logistic equation and the final result is determined as the inflection point (IP) of the curve”

| EC50 [nM] | SMILES |
| --- | --- |
| 38 | CN1Cc2ccc(-c3ncc(F)cc3-c3cnn(CC4(C)CCCC4)c3)cc2C1=O [Example 50, 6-(5-fluoro-3-(1-((1-methylcyclopentyl)methyl)-1H-pyrazol-4-yl)pyridin-2-yl)-2-methylisoindolin-1-one] |
| 75 | CN1Cc2ccc(-c3nc(C#N)c(N)cc3-c3cnn(CC4(C)CCCC4)c3)cc2C1=O [Example 51, 3-amino-6-(2-methyl-3-oxoisoindolin-5-yl)-5-(1-((1-methylcyclopentyl)methyl)-1H-pyrazol-4-yl)picolinonitrile] |
| 40 | CN1Cc2ccc(-c3nc(CF)ccc3-c3cnn(CC4(C)CCCC4)c3)cc2C1=O [Example 52, 6-(6-(fluoromethyl)-3-(1-((1-methylcyclopentyl)methyl)-1H-pyrazol-4-yl)pyridin-2-yl)-2-methylisoindolin-1-one] |
| 61 | Cc1cc(-c2cnn(CC3(C)CCCC3)c2)c(-c2ccc3c(c2)C(=O)N(C)C3)nc1F [Example 53, 6-(6-fluoro-5-methyl-3-(1-((1-methylcyclopentyl)methyl)-1H-pyrazol-4-yl)pyridin-2-yl)-2-methylisoindolin-1-one] |
| 8 | CN1Cc2ncc(-c3nc(C#N)ccc3-c3cnn(CC4(C)CCCC4)c3F)cc2C1=O [Example 54, 5-(5-fluoro-1-((1-methylcyclopentyl)methyl)-1H-pyrazol-4-yl)-6-(6-methyl-5-oxo-6,7-dihydro-5H-pyrrolo[3,4-b]pyridin-3-yl)picolinonitrile] |
| 38 | CC1(Cn2cc(-c3cc4c(nc3-c3ccc5c(c3)C(=O)NC5)CCC4)cn2)CCCC1 [Example 55, 6-(3-(1-((1-methylcyclopentyl)methyl)-1H-pyrazol-4-yl)-6,7-dihydro-5H-cyclopenta[b]pyridin-2-yl)isoindolin-1-one] |
| 72 | CC1(Cn2cc(-c3cc4c(nc3-c3ccc5c(c3)C(=O)N(CCC#N)C5)CCC4)cn2)CCCC1 [Example 56, 3-(6-(3-(1-((1-methylcyclopentyl)methyl)-1H-pyrazol-4-yl)-6,7-dihydro-5H-cyclopenta[b]pyridin-2-yl)-1-oxoisoindolin-2-yl)propanenitrile] |
| 44 | CN1Cc2ccc(-c3nc(F)ccc3-c3cnn(CC4(C)CCCC4)c3F)cc2C1=O [Example 57, 6-(6-fluoro-3-(5-fluoro-1-((1-methylcyclopentyl)methyl)-1H-pyrazol-4-yl)pyridin-2-yl)-2-methylisoindolin-1-one] |
| 35 | CN1Cc2ncc(-c3nc(CF)ccc3-c3cnn(CC4(C)CCCC4)c3)cc2C1=O [Example 58, 3-(6-(fluoromethyl)-3-(1-((1-methylcyclopentyl)methyl)-1H-pyrazol-4-yl)pyridin-2-yl)-6-methyl-6,7-dihydro-5H-pyrrolo[3,4-b]pyridin-5-one] |
| 14 | CN1Cc2ncc(-c3nc(F)ccc3-c3cnn(CC4(C)CCCC4)c3F)cc2C1=O [Example 59, 3-(6-fluoro-3-(5-fluoro-1-((1-methylcyclopentyl)methyl)-1H-pyrazol-4-yl)pyridin-2-yl)-6-methyl-6,7-dihydro-5H-pyrrolo[3,4-b]pyridin-5-one] |
| 99 | CN1C(=O)c2cc(-c3nc(C#N)ccc3-c3cnn(CC4(C)CCCC4)c3)ccc2C1(C)C [Example 60] |
| 59 | CN1Cc2ncc(-c3nc4c(cc3-c3cnn(CC5(C)CCCC5)c3)CCC4)cc2C1=O [Example 61, 6-methyl-3-(3-(1-((1-methylcyclopentyl)methyl)-1H-pyrazol-4-yl)-6,7-dihydro-5H-cyclopenta[b]pyridin-2-yl)-6,7-dihydro-5H-pyrrolo[3,4-b]pyridin-5-one] |
| 293 | Cc1cc(N)c(-c2cnn(CC3(C)CCCC3)c2)c(-c2ccc3c(c2)C(=O)N(C)C3)n1 [Example 62, 6-(4-amino-6-methyl-3-(1-((1-methylcyclopentyl)methyl)-1H-pyrazol-4-yl)pyridin-2-yl)-2-methylisoindolin-1-one] |
| 489 | CN1Cc2ccc(-c3nc(Cl)cc(N)c3-c3cnn(CC4(C)CCCC4)c3)cc2C1=O [Example 63, 6-(4-amino-6-chloro-3-(1-((1-methylcyclopentyl)methyl)-1H-pyrazol-4-yl)pyridin-2-yl)-2-methylisoindolin-1-one] |
| 119 | CC1(Cn2cc(-c3ccc(C#N)nc3-c3ccc4c(c3)C(=O)NC4(C)C)cn2)CCCC1 [Example 64, 6-(1,1-dimethyl-3-oxoisoindolin-5-yl)-5-(1-((1-methylcyclopentyl)methyl)-1H-pyrazol-4-yl)picolinonitrile] |
| 136 | Cc1ccc(-c2cnn(CC3(C)CCCC3)c2)c(-c2ccc3c(c2)C(=O)N(CC2CC2)C3)n1 [Example 65, 2-(cyclopropylmethyl)-6-(6-methyl-3-(1-((1-methylcyclopentyl)methyl)-1H-pyrazol-4-yl)pyridin-2-yl)isoindolin-1-one] |
| 39 | CC1(Cn2cc(-c3cc4c(nc3-c3cnc5c(c3)C(=O)N(CCF)C5)CCC4)cn2)CCCC1 [Example 66, 6-(2-fluoroethyl)-3-(3-(1-((1-methylcyclopentyl)methyl)-1H-pyrazol-4-yl)-6,7-dihydro-5H-cyclopenta[b]pyridin-2-yl)-6,7-dihydro-5H-pyrrolo[3,4-b]pyridin-5-one] |
| 23 | CN1Cc2ccc(-c3nc(CF)ccc3-c3cnn(CC4(C)CCCC4)c3F)cc2C1=O [Example 68, 6-(3-(5-fluoro-1-((1-methylcyclopentyl)methyl)-1H-pyrazol-4-yl)-6-(fluoromethyl)pyridin-2-yl)-2-methylisoindolin-1-one] |
| 34 | CC1(Cn2cc(-c3cc4c(nc3-c3cnc5c(c3)C(=O)N(CCC#N)C5)CCC4)cn2)CCCC1 [Example 69, 3-(3-(3-(1-((1-methylcyclopentyl)methyl)-1H-pyrazol-4-yl)-6,7-dihydro-5H-cyclopenta[b]pyridin-2-yl)-5-oxo-5,7-dihydro-6H-pyrrolo[3,4-b]pyridin-6-yl)propanenitrile] |
| 47 | COCCN1Cc2ncc(-c3nc4c(cc3-c3cnn(CC5(C)CCCC5)c3)CCC4)cc2C1=O [Example 70, 6-(2-methoxyethyl)-3-(3-(1-((1-methylcyclopentyl)methyl)-1H-pyrazol-4-yl)-6,7-dihydro-5H-cyclopenta[b]pyridin-2-yl)-6,7-dihydro-5H-pyrrolo[3,4-b]pyridin-5-one] |
| 35 | CN1C(=O)c2cc(-c3nc4c(cc3-c3cnn(CC5(C)CCCC5)c3)CCC4)cnc2C1(C)C [Example 71, 6,7,7-trimethyl-3-(3-(1-((1-methylcyclopentyl)methyl)-1H-pyrazol-4-yl)-6,7-dihydro-5H-cyclopenta[b]pyridin-2-yl)-6,7-dihydro-5H-pyrrolo[3,4-b]pyridin-5-one] |
| 41 | CN1C(=O)c2cc(-c3nc(C#N)ccc3-c3cnn(CC4(C)CCCC4)c3)ccc2C1(C)C [Example 72] |
| 52 | COCCN1Cc2ccc(-c3nc4c(cc3-c3cnn(CC5(C)CCCC5)c3)CCC4)cc2C1=O [Example 73, 2-(2-methoxyethyl)-6-(3-(1-((1-methylcyclopentyl)methyl)-1H-pyrazol-4-yl)-6,7-dihydro-5H-cyclopenta[b]pyridin-2-yl)isoindolin-1-one] |
| 24 | CN1Cc2ncc(-c3nc4c(cc3-c3cnn(CC5(C)CCCC5)c3F)CCC4)cc2C1=O [Example 74, 3-(3-(5-fluoro-1-((1-methylcyclopentyl)methyl)-1H-pyrazol-4-yl)-6,7-dihydro-5H-cyclopenta[b]pyridin-2-yl)-6-methyl-6,7-dihydro-5H-pyrrolo[3,4-b]pyridin-5-one] |
| 80 | Cc1cc(-c2cnn(CC3(C)CCCC3)c2F)c(-c2ccc3c(c2)C(=O)N(C)C3)nc1Cl [Example 75, 6-(6-chloro-3-(5-fluoro-1-((1-methylcyclopentyl)methyl)-1H-pyrazol-4-yl)-5-methylpyridin-2-yl)-2-methylisoindolin-1-one] |
